Earlier results as cited in PMC4153342 (Vaccine, 2014).

System: HLA-A2 on TAP-deficient/HLA-A2+ T2 cells
Conditions: previously reported

Row | Sequence | affinity for HLA-A2 in vitro
1 | AMTKLGFKA [p57] | have affinity for HLA-A2
2 | KASEKIFYV [p41] | have affinity for HLA-A2
3 | MTFGRLQGI [p99] | have affinity for HLA-A2
4 | RLQGISPKI [p103] | have affinity for HLA-A2
